Measured values taken from ChEMBL document CHEMBL4392888, “Isolation of Sesquiterpene-Amino Acid Conjugates, Onopornoids A-D, and a Flavonoid Glucoside from Onopordum alexandrinum” (J Nat Prod, 2019).

Legend:
[1] = Antioxidant activity assessed as DPPH radical scavenging activity incubated for 30 mins by UV-spectrophotometric method; assay type: functional
Tyrosinase = biological target: T1, Tyrosinase (Homo sapiens, UniProt P14679); assay: Inhibition of tyrosinase (unknown origin)
T1 sequence (P14679 whole entry): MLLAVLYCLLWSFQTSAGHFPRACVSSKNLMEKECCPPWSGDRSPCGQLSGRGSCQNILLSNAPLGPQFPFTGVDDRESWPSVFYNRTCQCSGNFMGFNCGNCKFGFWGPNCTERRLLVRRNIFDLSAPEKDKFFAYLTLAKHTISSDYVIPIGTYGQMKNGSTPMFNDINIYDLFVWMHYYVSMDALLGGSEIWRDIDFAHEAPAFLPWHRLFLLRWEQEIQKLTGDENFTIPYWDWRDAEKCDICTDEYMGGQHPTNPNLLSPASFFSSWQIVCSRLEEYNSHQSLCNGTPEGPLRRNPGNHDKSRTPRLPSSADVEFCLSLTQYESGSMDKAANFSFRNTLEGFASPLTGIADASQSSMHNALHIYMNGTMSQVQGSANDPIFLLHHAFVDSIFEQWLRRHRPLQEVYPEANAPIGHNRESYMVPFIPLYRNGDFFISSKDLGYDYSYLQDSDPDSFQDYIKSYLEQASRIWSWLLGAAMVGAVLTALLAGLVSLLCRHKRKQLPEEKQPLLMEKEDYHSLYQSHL

Leishmania = assay: Antimicrobial activity against Leishmania; assay type: functional, organism-based
Bacteria = assay: Antimicrobial activity against bacteria; assay type: functional, organism-based

SMILES	IC50 [1] [µM]	IC50 (Tyrosinase) [µM]	IC50 (Leishmania) [µM]	IC50 (Bacteria) [µM]
O=C(/C=C/c1ccc(O)c(O)c1)O[C@H]1[C@H](O)[C@@H](O)[C@H](Oc2cc(O)c3c(=O)cc(-c4ccc(O)c(O)c4)oc3c2)O[C@@H]1CO	68.9	> 50	> 50	> 50
O=c1cc(-c2ccc(O)cc2)oc2cc(O[C@@H]3O[C@H](CO)[C@@H](O)[C@H](O)[C@H]3O)cc(O)c12 [APIGETRIN]	–	> 50	> 50	> 50
C[C@@H]1O[C@@H](OC[C@H]2O[C@@H](Oc3cc(O)c4c(=O)cc(-c5ccc(O)cc5)oc4c3)[C@H](O)[C@@H](O)[C@@H]2O)[C@H](O)[C@H](O)[C@H]1O [ISORHOIFOLIN]	–	> 50	> 50	> 50
C=C[C@]1(C)C[C@H](OC(=O)C(=C)CO)[C@@H]2[C@H](OC(=O)[C@H]2CN2CCC[C@H]2C(=O)O)[C@H]1C(=C)CO	–	> 50	> 50	> 50
COC(=O)[C@H]1O[C@@H](Oc2cc(O)c3c(=O)cc(-c4ccc(O)cc4)oc3c2)[C@H](O)[C@@H](O)[C@@H]1O	–	> 50	> 50	> 50
C=C[C@]1(C)C[C@H](OC(=O)/C(=C/C)CO)[C@@H]2[C@H](OC(=O)[C@H]2CN2CCC[C@H]2C(=O)O)[C@H]1C(=C)CO	–	> 50	> 50	> 50
COc1ccc(-c2cc(=O)c3c(O)cc(O[C@@H]4O[C@H](CO)[C@@H](O)[C@H](O)[C@H]4O)cc3o2)cc1 [TILIANINE]	–	> 50	> 50	> 50
C=C(CO)C(=O)O[C@H]1C/C(C)=C/CC/C(CO)=C/[C@H]2OC(=O)[C@@H](CN3CCC[C@H]3C(=O)O)[C@H]12	–	> 50	> 50	> 50
COc1ccc(-c2cc(=O)c3c(O)cc(O[C@@H]4O[C@H](CO[C@@H]5O[C@@H](C)[C@H](O)[C@@H](O)[C@H]5O)[C@@H](O)[C@H](O)[C@H]4O)cc3o2)cc1 [ACACIIN]	–	> 50	> 50	> 50

Now from value to molecule:

IC50 [1] [µM]	IC50 (Tyrosinase) [µM]	IC50 (Leishmania) [µM]	IC50 (Bacteria) [µM]	SMILES
–	> 50	> 50	> 50	COC(=O)[C@H]1O[C@@H](Oc2cc(O)c3c(=O)cc(-c4ccc(OC)cc4)oc3c2)[C@H](O)[C@@H](O)[C@@H]1O
–	> 50	> 50	> 50	C=C[C@]1(C)C[C@H](OC(=O)[C@@H](C)CO)[C@@H]2[C@H](OC(=O)[C@H]2CN2CCC[C@H]2C(=O)O)[C@H]1C(=C)CO
–	> 50	> 50	> 50	COc1ccc(C[C@H]2COC(=O)[C@@H]2Cc2ccc(O[C@@H]3O[C@H](CO)[C@@H](O)[C@H](O)[C@H]3O)c(OC)c2)cc1OC [ARCTIIN]
–	> 50	> 50	> 50	C[C@@H]1O[C@@H](Oc2cc(O)c3c(=O)cc(-c4ccc(O)cc4)oc3c2)[C@H](O)[C@H](O)[C@H]1O
75.3	> 50	> 50	> 50	O=c1c(O[C@@H]2O[C@H](CO)[C@@H](O)[C@H](O)[C@H]2O)c(-c2ccc(O)c(O)c2)oc2cc(O)cc(O)c12 [ISOQUERCETIN]
